Source: US8623416B2 (priority 2009, dated 2014)
“Also recorded” adds a separate entry of the source. Read-outs that look alike come from different tables or passages of the source.

How the values were obtained:
[1] = test system: Yellow Fever; set-up: species or system Syrian hamsters; details: hamster, in vivo
[2] = test system: Yellow Fever; set-up: species or system Syrian hamsters; details: hamster, in vivo; remark: listed apart in the source
[3] = test system: murine cytomegalovirus (MCMV); type: in vivo, Balb/c mice; details: for viral titers in lungs and salivary glands vs other groups / viral titers in spleen and liver vs control: day 7
[4] = test system: Eastern Equine Encephalitis Virus; set-up: species or system hamsters (Syrian golden); details: hamster, in vivo
[5] = test system: Eastern Equine Encephalitis Virus; set-up: species or system mice; details: mouse, in vivo
[6] = test system: human Hepatitis B virus; assay: Hepatitis B virus replication in primary human hepatocytes, PCR (Example 19); type: cell-based
Experimental: The purpose of this experiment was to determine the antiviral activity of squalamine against human Hepatitis B virus. The experiment was conducted in vitro, using primary human hepatocytes.
Experimental design: Primary human hepatocytes were established in a 96 well microtiter plate. Squalamine was then added at concentrations of 2, 6 or 20 μg/ml followed by an inoculum of Hep B virus, and then in culture for 16 hours, after which fresh medium was introduced, and the cells maintained in culture for 14 days. In a second experiment, squalamine at 6 or 20 μg/ml was added to the cells at 24 hours post inoculation for a 16 hour exposure, followed by removal of medium, replacement with fresh medium, and continued culture for 14 days. Viral growth was measured by PCR using viral specific primers and normalized to the total RNA extracted from each corresponding well.

[7] = for Toxicity: hamster, in vivo, sc
[8] = test system: Dengue virus
[9] = test system: human immunodeficiency virus (HIV)
[10] = in vivo; cited from earlier work
[11] = in vivo; cited from earlier work; remark: listed apart in the source
[12] = test system: human Hepatitis Delta virus; assay: Hepatitis Delta virus replication in primary human hepatocytes, PCR (Example 20)
[13] = type: physicochemical; details: 0.1 ml squalamine lactate 10 mg/ml in water + 1 volume 0.1M solution of the anion, turbid = insoluble salt form
[14] = 10 mg of squalamine as a phosphate suspension
[15] = squalamine phosphate 10 mg/kg/day s.c.
[16] = mouse, in vivo, ip, 10 mg/kg/day
[17] = 20 μg/ml, added during initial stages of infection

## 3 beta-N-1-(N-[3-(4-aminobutyl)]-1,3-diaminopropane)-7 alpha,24 zeta-dihydroxy-5 alpha-cholestane 24-sulfate [squalamine]
[1]
  survival: 70%
[2]
  animals cured: 40%
  outcome of treatment of established infection: cure a lethal infection
  survival through day 21: 60%
[3]; 10 mg/kg/day i.p.
  viral titers in lung compared with control: trend toward reduction
  viral titers in lungs and salivary glands vs other groups: no significant differences
  viral titers in spleen and liver vs control: significantly lower than in the control cohort
[3]; [15]
  viral titers in lungs and salivary glands vs other groups: no significant differences
  viral titers in spleen and liver vs control: significantly lower than in the control cohort
[3]; mouse, in vivo
  virus in the liver and spleen: significantly reduced; also recorded: undetectable levels
[3]; [16]
  effect on viral growth in the salivary gland: little effect
  reduction in viral growth in liver, spleen, and lung: greater than 10 fold
  virus in the liver and spleen: undetectable levels
[4]
  effect on survival: extended survival; also recorded: increase survival
  effect on viremia: significantly reduce viremia
  hamsters still alive at the end of treatment: 6/10
  plasma concentrations of virus lower than vehicle: about 100 fold
[5]
  efficacy in mice: ineffective
[6]; 2 μg/ml, added only at the outset of infection
  inhibition of viral production: 14%
[6]; 6 μg/ml, added at 24 hours
  inhibition of viral production: 30%
[6]; 6 μg/ml, added at the onset of infection
  inhibition of viral production: 54%
[6]; 20 μg/ml, added at 24 hours
  inhibition of viral production: 64%
[6]; [17]
  inhibition of viral production: 83%
[7]; 15 mg/kg/day
  Toxicity: Mild/moderate by day 1
[7]; 30 mg/kg/day
  Toxicity: moderate
[7]; 60 mg/kg/day
  Toxicity: Severe, open wounds
[8]
  cell viability: not diminished
  inhibition of viral infection: 100%
[9]
  Toxicity: no evidence of toxicity
  inhibition of HIV infection: about 50%; also recorded: about 20%
[10]
  tolerability: well tolerated
[11]
  tolerability: well tolerated
[12]; [17]
  inhibition of viral production: 90%
[12]; 60 μg/ml, primary human hepatocytes
  cytotoxicity in vitro: cytotoxic

## O=C[C@H](O)[C@@H](O)[C@H](O)[C@H](O)COP(=O)(O)O [Glucose 6-phosphate]
[13]
  Turbidity: No and no

## CC(=O)C(=O)[O-].[Na+] [Sodium pyruvate]
[13]
  Turbidity: No and no

## O=P([O-])([O-])OP(=O)([O-])OP(=O)([O-])[O-].[Na+].[Na+].[Na+].[Na+].[Na+] [Sodium triphosphate]
[13]; triphosphate
  Turbidity: Yes and yes

## NC(=O)c1ncn([C@@H]2O[C@H](CO)[C@@H](O)[C@H]2O)n1 [ribavirin, reference compound]
[1]
  survival vs placebo: fared no better than the placebo-treated cohort

## squalamine phosphate
[1]
  survival: 70%
[14]
  water added until fully dissolved: about 250 ml
[7]; 15 mg/kg/day
  Toxicity: none
[7]; 30 mg/kg/day
  Toxicity: none
[7]; 60 mg/kg/day
  Toxicity: none
[7]; s.c. dosing at 10 mg/ml, recorded 7 days post injection
  lesions at the sites of administration: no lesions
0.1 ml of 10 mg/ml s.c.
  persistence of local signs (lactate: signs and symptoms; phosphate: slight swelling): about 1 week
human, in vivo, sc
  local signs at injection site: free of visible signs of irritation, save for a slight swelling
  pain on injection: no pain other than that produced by the needle prick
